# Data from patent US7595405B2, “Tetrazole-substituted arylamides as P2X3 and P2X2/3 antagonists” (Roche Palo Alto LLC, priority 2006, dated 2009).
# pIC50: −log10 of the molar value.
# Legend:
# [1] = molecular target: T1, rat P2X3 receptor (Rattus norvegicus, UniProt P49654); test: P2X3 FLIPR (Fluorometric Imaging Plate Reader) assay; type: cell-based; conditions: CHO-K1 cells transfected with rat P2X3, agonist α,β-meATP 1 μM
# T1 construct: expressed in transfected cells; host or cells: CHO-K1
# T1 sequence (P49654 1-397): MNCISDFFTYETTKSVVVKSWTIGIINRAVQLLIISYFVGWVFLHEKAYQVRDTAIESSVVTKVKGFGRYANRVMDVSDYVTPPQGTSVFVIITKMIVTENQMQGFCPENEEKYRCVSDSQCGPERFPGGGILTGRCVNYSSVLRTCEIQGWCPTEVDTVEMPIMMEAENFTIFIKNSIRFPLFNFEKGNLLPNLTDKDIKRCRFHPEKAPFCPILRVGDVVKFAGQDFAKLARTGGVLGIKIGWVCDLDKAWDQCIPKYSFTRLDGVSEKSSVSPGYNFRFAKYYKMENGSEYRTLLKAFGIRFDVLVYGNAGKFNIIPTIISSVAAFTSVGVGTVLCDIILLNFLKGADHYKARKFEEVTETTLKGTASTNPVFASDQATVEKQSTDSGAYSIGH
# Protocol: P2X3/P2X2/3 FLIPR (Fluorometric Imaging Plate Reader) Assay
# CHO-K1 cells were transfected with cloned rat P2X3 or human P2X2/3 receptor subunits and passaged in flasks. 18-24 hours before the FLIPR experiment, cells were released from their flasks, centrifuged, and resuspended in nutrient medium at 2.5×10^5 cells/ml. The cells were aliquoted into black-walled 96-well plates at a density of 50,000 cells/well and incubated overnight in 5% CO2 at 37° C. On the day of the experiment, cells were washed in FLIPR buffer (calcium- and magnesium-free Hank's balanced salt solution, 10 mM HEPES, 2 mM CaCl2, 2.5 mM probenecid; FB). […]
# Test compounds (dissolved in DMSO at 10 mM and serially diluted with FB) or vehicle were added to each well (25 μl of a 4× solution) and allowed to equilibrate for 20 minutes at room temperature. The plates were then placed in the FLIPR and a baseline fluorescence measurement (excitation at 488 nm and emission at 510-570 nm) was obtained for 10 seconds before a 100 μl/well agonist or vehicle addition. […] Fluorescence was measured for an additional 2 minutes at 1 second intervals after agonist addition. A final addition of ionomycin (5 μM, final concentration) was made to each well of the FLIPR test plate to establish cell viability and maximum fluorescence of dye-bound cytosolic calcium. […]
pIC50 [1],melting point,SMILES
~8.80,,Cc1ccc(-c2cc(C(=O)N[C@@H](C)CO)cc(-n3nnnc3CC(C)C)c2)cc1 [5-(5-isobutyl-tetrazol-1-yl)-4′-methyl-biphenyl-3-carboxylic acid ((S)-2-hydroxy-1-methyl-ethyl)-amide]
,52 to 55 °C,"CCCc1nnnn1-c1cc(C(=O)NCc2cnc(C)cn2)cc(-c2ccc(Cl)cc2F)c1 [Example 741, 4′-Chloro-2′-fluoro-5-(5-propyl-tetrazol-1-yl)-biphenyl-3-carboxylic acid (5-methyl-pyrazin-2-ylmethyl)-amide]"
,58 to 60.3 °C,"CCCc1nnnn1-c1cc(C(=O)N[C@@H](C)CO)cc(-c2ccc(Cl)cc2F)c1 [Example 742, 4′-Chloro-2′-fluoro-5-(5-propyl-tetrazol-1-yl)-biphenyl-3-carboxylic acid ((S)-2-hydroxy-1-methyl-ethyl)-amide]"
